A short description of series [1]: A cytotoxicity screen of small molecule inhibitors of the PhoP region in Salmonella typhi identified in the primary screen. [Related pubchem assays: 1850, 1864, 1985 ]. In kind it is functional.
A further series has as its target Cytochrome P450 2C19 (Homo sapiens, UniProt P33261). The series can be described thus: Cytochrome panel assay with activity outcomes. Panel member name: p450-cyp2c19 Compounds with AC50 equal or less than 10 uM are considered active. The format is functional. The following applies: read-out: AC50.
Another series addresses T1, Cytochrome P450 1A2 (Homo sapiens, UniProt P05177).
T1 sequence (P05177 whole entry): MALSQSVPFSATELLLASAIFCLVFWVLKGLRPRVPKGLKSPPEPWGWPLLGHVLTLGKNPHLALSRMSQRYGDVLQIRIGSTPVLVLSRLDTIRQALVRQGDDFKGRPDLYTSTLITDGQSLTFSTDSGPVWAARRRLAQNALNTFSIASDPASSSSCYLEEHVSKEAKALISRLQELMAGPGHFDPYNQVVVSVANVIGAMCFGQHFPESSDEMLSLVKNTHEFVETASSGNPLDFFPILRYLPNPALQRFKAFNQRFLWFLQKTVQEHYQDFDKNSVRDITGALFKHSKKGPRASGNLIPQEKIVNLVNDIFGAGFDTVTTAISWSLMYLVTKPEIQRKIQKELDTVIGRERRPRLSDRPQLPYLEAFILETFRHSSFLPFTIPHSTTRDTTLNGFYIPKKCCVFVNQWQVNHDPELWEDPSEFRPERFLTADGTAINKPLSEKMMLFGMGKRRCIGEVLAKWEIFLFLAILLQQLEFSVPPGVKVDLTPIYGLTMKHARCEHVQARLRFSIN

The target in the next series is Cytochrome P450 2C9 (Homo sapiens, UniProt P11712).
The target in the next series is Cytochrome P450 2D6 (Homo sapiens, UniProt P10635).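 Further: CYP2D6 member of a cytochrome P450 panel assay.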
Another series in a line: cells. The format is functional.
The target in series [2] is T2, Carboxy-terminal domain RNA polymerase II polypeptide A small phosphatase 1 (Homo sapiens, UniProt Q9GZU7).
T2 sequence (Q9GZU7 whole entry): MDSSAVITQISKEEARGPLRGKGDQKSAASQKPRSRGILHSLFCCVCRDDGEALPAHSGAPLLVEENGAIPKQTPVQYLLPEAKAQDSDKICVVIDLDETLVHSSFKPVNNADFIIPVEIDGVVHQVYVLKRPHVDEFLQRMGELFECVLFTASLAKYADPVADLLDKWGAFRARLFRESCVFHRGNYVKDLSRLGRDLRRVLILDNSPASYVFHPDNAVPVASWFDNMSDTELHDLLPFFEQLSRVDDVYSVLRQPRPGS
The series is described as follows: inhibitors of CTDSP1, concentration-response testing, biochemical assay, absorbance-based, actives from ultra-high-throughput screening (AID 540297). The format is functional.

Series [3] can be described thus: THP-1 cell cytotoxicity, dose response, cytotoxicity control for Vif-APOBEC3G degradation inhibitor project, THP-1 cells (AID 1117359). In kind it is functional. The following applies: Human immunodeficiency virus 1, THP-1.
The target of series [4] is T3, Cytochrome P450 3A4 (Homo sapiens, UniProt P08684).
Series [5] deals with Glyceraldehyde-3-phosphate dehydrogenase (Homo sapiens, UniProt P04406).
Series [6] deals with T3, Cytochrome P450 3A4. The following applies: Potency.
Series [7] is described as follows: inhibitors of HIV Env-driven cell fusion, dose response, cherry-pick (AID 652057). In kind it is functional, cell-based.
Series [8] can be described thus: ZM109 Env clade C HIV-1 fusion inhibitors, dose response, HeLa effector, CEM target cells, luciferase, cherry-pick (AID 652058). In kind it is functional, cell-based.
Series [9] is described as follows: off-target signal loss in HeLa-CEM21 co-culture – HeLa F-luc CTL cells, cherry-picked, counter-screen for HIV-1 Env fusion inhibitor project, dose response (AID 652040).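 Further: potency for signal decrease marking cytotoxic or nonspecific inhibition.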 In kind it is functional, cell-based. A general note: The purpose of a counterscreen is to sort out artefacts and off-target activity.
A short description of series [10]: inhibitors of clade B AD8 Env fusion, dose response, cell-based, cherry-pick (AID 652062).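 Further: luciferase signal from cell-cell fusion driven by HIV-1 clade B AD8 Env; potency is for inhibitors of fusion seen as a drop in luminescence.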 In kind it is functional.

Activity calls are given as the source filed them.

Cytochrome P450 2C9, sequence (P11712 whole entry): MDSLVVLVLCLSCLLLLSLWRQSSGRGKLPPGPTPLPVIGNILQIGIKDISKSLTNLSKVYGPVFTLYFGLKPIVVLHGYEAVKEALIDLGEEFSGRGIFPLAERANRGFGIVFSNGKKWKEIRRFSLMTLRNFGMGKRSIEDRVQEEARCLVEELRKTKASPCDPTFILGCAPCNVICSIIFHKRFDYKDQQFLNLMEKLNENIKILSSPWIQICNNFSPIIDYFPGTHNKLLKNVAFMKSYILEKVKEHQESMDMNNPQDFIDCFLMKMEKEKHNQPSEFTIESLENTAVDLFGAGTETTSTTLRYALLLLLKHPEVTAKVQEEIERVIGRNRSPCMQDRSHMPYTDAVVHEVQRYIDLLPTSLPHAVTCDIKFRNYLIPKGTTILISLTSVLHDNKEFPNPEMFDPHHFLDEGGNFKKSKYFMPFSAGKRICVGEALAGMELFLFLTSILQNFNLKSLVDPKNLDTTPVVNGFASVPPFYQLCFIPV
Cytochrome P450 2C19, sequence (P33261 whole entry): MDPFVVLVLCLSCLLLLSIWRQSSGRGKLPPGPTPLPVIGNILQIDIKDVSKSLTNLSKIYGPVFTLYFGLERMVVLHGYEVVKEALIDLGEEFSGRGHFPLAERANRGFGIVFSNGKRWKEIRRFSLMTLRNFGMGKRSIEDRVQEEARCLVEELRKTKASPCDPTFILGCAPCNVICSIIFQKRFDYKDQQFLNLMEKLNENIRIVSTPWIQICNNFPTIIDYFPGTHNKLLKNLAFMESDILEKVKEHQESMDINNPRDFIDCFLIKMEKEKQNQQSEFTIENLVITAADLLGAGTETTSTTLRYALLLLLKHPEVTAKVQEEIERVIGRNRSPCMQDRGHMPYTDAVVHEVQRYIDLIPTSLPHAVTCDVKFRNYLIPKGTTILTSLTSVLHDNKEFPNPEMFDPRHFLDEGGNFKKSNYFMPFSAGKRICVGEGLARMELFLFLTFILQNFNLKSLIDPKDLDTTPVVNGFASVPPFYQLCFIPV
Cytochrome P450 2D6, sequence (P10635 whole entry): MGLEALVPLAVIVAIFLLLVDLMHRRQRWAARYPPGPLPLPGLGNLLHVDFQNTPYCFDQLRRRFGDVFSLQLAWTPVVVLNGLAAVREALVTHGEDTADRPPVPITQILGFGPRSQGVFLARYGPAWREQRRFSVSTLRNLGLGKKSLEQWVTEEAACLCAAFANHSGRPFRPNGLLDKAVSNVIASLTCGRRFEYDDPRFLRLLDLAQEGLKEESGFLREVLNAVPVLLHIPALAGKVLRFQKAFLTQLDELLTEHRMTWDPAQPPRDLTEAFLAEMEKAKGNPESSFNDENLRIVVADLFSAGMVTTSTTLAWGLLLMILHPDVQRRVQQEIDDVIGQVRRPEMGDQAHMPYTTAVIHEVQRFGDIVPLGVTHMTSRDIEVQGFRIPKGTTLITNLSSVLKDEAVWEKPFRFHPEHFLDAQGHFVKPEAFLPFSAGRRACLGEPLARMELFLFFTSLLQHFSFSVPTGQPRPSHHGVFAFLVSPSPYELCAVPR
T3 sequence (P08684 whole entry): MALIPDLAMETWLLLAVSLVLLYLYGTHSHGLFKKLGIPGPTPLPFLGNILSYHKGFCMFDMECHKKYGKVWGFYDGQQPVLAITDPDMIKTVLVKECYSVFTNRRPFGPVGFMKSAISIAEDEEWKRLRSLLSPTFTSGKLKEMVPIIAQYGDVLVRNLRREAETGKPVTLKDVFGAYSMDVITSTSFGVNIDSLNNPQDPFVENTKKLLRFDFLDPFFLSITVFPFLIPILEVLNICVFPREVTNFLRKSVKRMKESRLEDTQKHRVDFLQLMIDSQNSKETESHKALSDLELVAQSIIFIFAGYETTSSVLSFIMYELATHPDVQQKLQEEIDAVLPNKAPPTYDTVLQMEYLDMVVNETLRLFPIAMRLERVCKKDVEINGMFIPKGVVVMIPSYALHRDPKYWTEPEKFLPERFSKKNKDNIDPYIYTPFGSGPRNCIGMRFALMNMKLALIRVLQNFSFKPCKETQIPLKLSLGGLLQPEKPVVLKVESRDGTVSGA
Glyceraldehyde-3-phosphate dehydrogenase, sequence (P04406 whole entry): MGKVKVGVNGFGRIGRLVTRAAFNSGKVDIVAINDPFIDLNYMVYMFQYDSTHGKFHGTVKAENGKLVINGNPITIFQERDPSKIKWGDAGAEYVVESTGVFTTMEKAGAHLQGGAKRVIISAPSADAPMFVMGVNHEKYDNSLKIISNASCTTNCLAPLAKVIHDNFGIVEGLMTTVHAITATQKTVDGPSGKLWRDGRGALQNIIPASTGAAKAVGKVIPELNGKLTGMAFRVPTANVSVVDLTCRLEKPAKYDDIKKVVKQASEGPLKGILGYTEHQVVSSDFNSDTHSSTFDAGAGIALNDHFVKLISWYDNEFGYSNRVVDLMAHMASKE

A word on the EC50: it is the midpoint of the concentration-response curve. For `CCCCCc1nc2c(c3c1CCCC3)CCCC2`, the 50% effective concentration (EC50) in series [1] was > 50 µM (active).
One may read the AC50 as the midpoint of the concentration-response curve, whichever way the signal moves. On to `O=C(Nc1ccc(Cl)cc1C(F)(F)F)c1ccc(Cl)cc1`, for which the concentration at half-maximal activity (AC50) at Cytochrome P450 2C19 was 2.24 µM (inconclusive); at Cytochrome P450 1A2 it was 4.47 µM (inconclusive); on Cytochrome P450 2C9 it was “inconclusive”.
With `O=S(=O)(NC1CCN(Cc2ccccc2)CC1)c1cccc2cccnc12`, the results for the AC50 at Cytochrome P450 2D6 and on Cytochrome P450 2C9 were 1.58 µM (inconclusive) and “inconclusive”, respectively.
What is called IC50 is the point on the concentration scale where inhibition reaches its midpoint. In the case of `COc1ccc(C(=O)OCn2nnc3ccccc3c2=O)cc1`, in “cells”, the 50% inhibitory concentration (IC50) is 16.8 µM (active).
In the case of `NC(=NOC(=O)N1c2ccccc2Sc2ccccc21)c1ccc(Br)cc1`, in series [2], the IC50 was 6.46 µM (active).
Still for that read-out and setting: to `Cc1ccn2c(=O)nc(SCC(=O)NCc3ccccc3)nc2c1` belongs 9.61 µM (active); to `CC(C)c1cccc(-c2ccc3c(c2)S(=O)(=O)c2cccc(C(=O)NCc4ccco4)c2C3=O)c1`, 8.02 µM (active).
`Cc1cccc(NC(=O)c2onc3c2CCCC3)c1C`: the AC50 at Cytochrome P450 2C19 is 20 µM (inconclusive); at Cytochrome P450 2C9, “inconclusive”.
For `O=C1CCCN1c1ccc(CNS(=O)(=O)c2ccc(F)cc2)cc1`, the 50% effective concentration (EC50) in [1] was > 50 µM (active).
Broadly, the CC50 is the concentration that lowers cell viability or growth by half. For the molecule `COc1ccc(C2(O)CCN(Cc3nnnn3Cc3ccc(F)cc3)CC2)cc1`, the CC50 in [3] is > 40 µM (active).
As for `COc1cccc(C(=O)OCn2nnc3ccccc3c2=O)c1OC`, in the series “cells”, the IC50 is 16.2 µM (active).
`CCOc1ccccc1OCCOc1ccc(F)cc1`: the AC50 is 22.4 µM (inconclusive) on Cytochrome P450 2D6 and “inconclusive” at Cytochrome P450 2C9.
Take `Cc1cc(C(=O)OCC(=O)NCCC(C)C)c2ccccc2n1`: the half-maximal activity concentration (AC50) on Cytochrome P450 3A4 [4] is 15.8 µM (inconclusive); on Cytochrome P450 2C9 it was “inconclusive”.
As to `O=C(c1ccc(N2CCN(C(=O)c3ccccc3Br)CC2)cc1)c1cccc(F)c1`, in series [5], the IC50 is reported as > 100 µM (not active).
Consider `COc1ccc(NC(=O)C2CCN(C(=O)c3cccs3)CC2)c(OC)c1`, for which, on Cytochrome P450 2C9, the AC50 result is “inconclusive”.
On to `CCSc1nc(C)cc(C)c1S(=O)(=O)c1ccccc1C`, for which the EC50 in series [1] is > 50 µM (active).
Turning to `CC(C)c1c(O)ccc2c1CCC1C(C)(C)CCC[C@@]21C` (stereo partly drawn), the half-maximal activity concentration (AC50) at Cytochrome P450 3A4 [6] was 25.1 µM (inconclusive).
For `CCCOc1ccc(N2CC(C(=O)Nc3ccccn3)CC2=O)cc1` (stereo not drawn), in “cells”, the half-maximal inhibitory concentration (IC50) is 19.8 µM (active).
Consider `CC[C@@]12C(=O)N(c3cccc(F)c3)C(=O)N1[C@H](c1ccc(Br)cc1)[C@@H]1C(=O)N(C(C)(C)C)C(=O)[C@@H]12`, for which the AC50 in series [7], in series [8], in series [9] and in series [10] was < 0.26 µM (active) in each case.
`COc1ccc(S(=O)(=O)NCCC(=O)NC(C)c2ccccc2)cc1` (stereo not drawn): the half-maximal activity concentration (AC50) on Cytochrome P450 2C19 was 17.8 µM (inconclusive); at Cytochrome P450 2D6 it was 14.1 µM (inconclusive); at Cytochrome P450 3A4 [4], 22.4 µM (inconclusive); at Cytochrome P450 2C9, “inconclusive”.
Consider `O=C(C[n+]1cc(-c2ccccc2)n2c1CCC2)c1cccs1`, for which the EC50 in [1] was > 50 µM (active).
Consider `O=C(CCCCCCCC(=O)NNC(=O)Nc1ccccc1)NNC(=O)Nc1ccccc1`, for which the IC50 in series [2] was 11.9 µM (active).
Turning to `OC1=C2C(=Nc3ccccc3NC2c2cccs2)CCC1` (stereo not drawn), the concentration at half-maximal activity (AC50) is 2.27 µM (active) in [7], 1.3 µM (active) in series [8], 2.44 µM (active) in series [9] and 3.83 µM (active) in series [10].
For the molecule `Cn1ccs/c1=N\C(=O)c1ccccc1F`, the IC50 in “cells” was > 50 µM (active).
`Oc1ccc(C2NCc3ccccc3-n3cccc32)cc1Cl` (stereo not drawn): the EC50 in series [1] was > 50 µM (active).
`S=C=Nc1cccc2ccccc12` [1-NAPHTHYLISOTHIOCYANATE]: the AC50 on Cytochrome P450 3A4 [6] was 25.1 µM (inconclusive).
Same read-out and setting: to `COc1ccc(-c2coc3cc(OC)cc(OC)c3c2=O)cc1` [BIOCHANIN A, DIMETHYL ETHER] belongs 20 µM (inconclusive); to `C=CCN1CC[C@]23c4c5ccc(O)c4O[C@H]2/C(=N/NC(=O)c2ccccc2)CC[C@@]3(O)[C@H]1C5` [NALOXONE BENZOYLHYDRAZONE], 15.8 µM (inconclusive).

(Values after ChEMBL document CHEMBL1201862, “PubChem BioAssay data set” (2004).)
